In PubChem BioAssay AID328 (DTP/NCI, 2004) one finds T/C data, which are given here for 24 molecules.

Each structure is given as a SMILES string. Where “and” joins values, the source holds several entries; their conditions need not be identical. Identical values can stand only once. Toxic doses and inconclusive results are not listed. Residues, ends and D or L forms follow the SMILES beside them. *: point of attachment. Cbz = O=C(OCc1ccccc1)*; Bn = c1ccc(C*)cc1; βAla = NCCC(=O)O

This experiment has as its system BDF1 mice, P388 leukemia ip, median survival T/C. Put plainly: NCI In Vivo Anticancer Drug Screen. Data for tumor model P388 Leukemia (intraperitoneal) in B6D2F1 (BDF1) mice. Conditions: endpoint: median survival time, higher = longer survival. The method in brief: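 Reported as T/C, where T is the survival measurement in dosed animals and C the same measurement in vehicle controls.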

Where [1] appears, read: dose: 12.5 mg/kg/injection, schedule: Q01DX009 (ip), vehicle: saline.
Where [2] appears, read: dose: 12.5 mg/kg/injection, schedule: Q04DX003 (ip), vehicle: saline with Tween-80.
Setting [3] is: dose: 25.0 mg/kg/injection, schedule: Q04DX003 (ip), vehicle: saline with Tween-80.
[4] abbreviates: dose: 100.0 mg/kg/injection, schedule: Q01DX009 (ip), vehicle: saline with Tween-80.
Setting [5] is: dose: 200.0 mg/kg/injection, schedule: Q01DX009 (ip), vehicle: saline with Tween-80.
Where [6] appears, read: dose: 400.0 mg/kg/injection, schedule: Q01DX009 (ip), vehicle: saline with Tween-80.
Setting [7] is: dose: 100.0 mg/kg/injection, schedule: Q04DX003 (ip), vehicle: Klucel (hydroxypropylcellulose) (HPC).
Setting [8] is: dose: 200.0 mg/kg/injection, schedule: Q04DX003 (ip), vehicle: Klucel (hydroxypropylcellulose) (HPC).
[9] abbreviates: dose: 400.0 mg/kg/injection, schedule: Q04DX003 (ip), vehicle: Klucel (hydroxypropylcellulose) (HPC).
Where [10] appears, read: dose: 100.0 mg/kg/injection, schedule: Q04DX003 (ip), vehicle: saline with Tween-80.
Setting [11] is: dose: 200.0 mg/kg/injection, schedule: Q04DX003 (ip), vehicle: saline with Tween-80.
[12] abbreviates: dose: 400.0 mg/kg/injection, schedule: Q04DX003 (ip), vehicle: saline with Tween-80.
Where [13] appears, read: dose: 25.0 mg/kg/injection, schedule: Q01DX009 (ip), vehicle: saline.
[14] abbreviates: dose: 50.0 mg/kg/injection, schedule: Q01DX009 (ip), vehicle: saline.
The mark [15] stands for this setting: dose: 50.0 mg/kg/injection, schedule: Q04DX003 (ip), vehicle: Klucel (hydroxypropylcellulose) (HPC).

Regarding `Clc1nc2ccccc2nc1CI`, the T/C is 118 % of control (dose: 1.8 mg/kg/injection, schedule: Q01DX009 (ip), vehicle: saline); 122 % of control (dose: 2.7 mg/kg/injection, schedule: Q01DX009 (ip), vehicle: saline); 113 % of control (dose: 8.75 mg/kg/injection, schedule: Q04DX003 (ip), vehicle: saline); 118 % of control (dose: 12.5 mg/kg/injection, schedule: Q01DX009 (ip), vehicle: saline with Tween-80); 90 % of control under setting [1]; 113 % of control under setting [2]. The T/C (dose: 17.5 mg/kg/injection, schedule: Q04DX003 (ip), vehicle: saline) is 121 % of control; the T/C under setting [3] was 118 % of control; the T/C (dose: 35.0 mg/kg/injection, schedule: Q04DX003 (ip), vehicle: saline) is 113 % of control; the T/C (dose: 50.0 mg/kg/injection, schedule: Q04DX003 (ip), vehicle: saline) is 113 % of control.

With `COC(=O)C(C)=O`, the T/C is 90 % of control under setting [4], 95 % of control under setting [5] and 90 % of control under setting [6].

`CCCCCCC(=O)/C=C/c1ccc(N(C)C)cc1`: the T/C is, setting by setting: under setting [4], 97 % of control; under setting [5], 97 % of control; under setting [6], 93 % of control.

In the case of `S=P(Oc1ccccc1)(N1CC1)N1CC1`, the T/C is, setting by setting: (dose: 100.0 mg/kg/injection, schedule: Q01DX007 (ip), vehicle: DMSO) 88 % of control; under setting [7], 100 % of control; under setting [8], 108 % of control; under setting [9], 100 % of control.

As to `Cc1ccc(OCc2c(COc3ccc(Cl)cc3)sc3ccc(Cl)cc23)cc1`, the T/C under setting [2] is 95 % of control and the T/C under setting [3] was 87 % of control.

In the case of `CCOC(=O)CCCc1ccccc1`, the T/C reads like this: under setting [10], 113 % of control; under setting [11], 100 % of control; under setting [12], 100 % of control.

In the case of `C=C1C(=O)OC(C)(C)C1(C)C`, the T/C is, setting by setting: under setting [1], 105 % of control; under setting [13], 98 % of control; under setting [14], 86 % of control and 88 % of control.

As to `N=C(N)SC1c2cc(Cl)ccc2-c2c(Cl)cc(Cl)cc21` (stereo unspecified), the T/C by setting is: (dose: 3.1 mg/kg/injection, schedule: Q01DX010 (ip), vehicle: carboxymethylcellulose (CMC)) 100 % of control; (dose: 6.2 mg/kg/injection, schedule: Q01DX010 (ip), vehicle: carboxymethylcellulose (CMC)) 110 % of control; (dose: 12.5 mg/kg/injection, schedule: Q01DX009 (ip), vehicle: Klucel (hydroxypropylcellulose) (HPC)) 100 % of control; (dose: 12.5 mg/kg/injection, schedule: Q01DX010 (ip), vehicle: carboxymethylcellulose (CMC)) 110 % of control; (dose: 25.0 mg/kg/injection, schedule: Q01DX009 (ip), vehicle: Klucel (hydroxypropylcellulose) (HPC)) 120 % of control; (dose: 100.0 mg/kg/injection, schedule: Q01DX010 (ip), vehicle: carboxymethylcellulose (CMC)) 150 % of control.

Consider `CC(=N\[O-])/C(C)=N/O.CC(=N\[O-])/C(C)=N/O.CCCN.[Cl-].[Cl-].[Rh+3]`, for which the T/C reads like this: (dose: 6.25 mg/kg/injection, schedule: Q01DX009 (ip), vehicle: saline) 98 % of control; under setting [1], 110 % of control; under setting [14], 89 % of control; (dose: 100.0 mg/kg/injection, schedule: Q01DX009 (ip), vehicle: saline) 94 % of control; (dose: 200.0 mg/kg/injection, schedule: Q01DX009 (ip), vehicle: saline) 110 % of control.

On to `Cc1nc(N)sc1CCCl`, for which the T/C (dose: 10.0 mg/kg/injection, schedule: Q01DX009 (ip), vehicle: saline) was 104 % of control; the T/C (dose: 20.0 mg/kg/injection, schedule: Q01DX009 (ip), vehicle: saline) was 104 % of control; the T/C (dose: 40.0 mg/kg/injection, schedule: Q01DX009 (ip), vehicle: saline) is 100 % of control; the T/C (dose: 80.0 mg/kg/injection, schedule: Q01DX009 (ip), vehicle: saline) was 113 % of control.

On to `O=[N+]([O-])c1ccc(S)cc1`, for which the T/C is, setting by setting: (dose: 18.75 mg/kg/injection, schedule: Q01DX009 (ip), vehicle: saline sonified) 100 % of control; (dose: 37.5 mg/kg/injection, schedule: Q01DX009 (ip), vehicle: saline sonified) 100 % of control; (dose: 75.0 mg/kg/injection, schedule: Q01DX009 (ip), vehicle: saline sonified) 117 % of control.

`COC(=O)C(CSCc1ccccc1)NC(=O)C(CSCc1ccccc1)NC(=O)CCNC(=O)OCc1ccccc1` (stereo unspecified) ({Cbz-βAla}-Cys(Bn)-Cys(Bn)-OMe; configuration not given here): the T/C by setting is: (dose: 25.0 mg/kg/injection, schedule: Q04DX003 (ip), vehicle: Klucel (hydroxypropylcellulose) (HPC)) 102 % of control; under setting [15], 100 % of control; under setting [7], 95 % of control; under setting [8], 93 % of control; under setting [9], 93 % of control.

On to `C1O[C@@H]1[C@H]1CO1`, for which the T/C under setting [13] is 150 % of control and the T/C (dose: 37.5 mg/kg/injection, schedule: Q01DX009 (ip), vehicle: saline) is 186 % of control.

As for `O=C(COc1ccc(Cl)cc1Cl)Oc1c(Cl)c(Cl)c(Cl)c(Cl)c1Cl`, the T/C was 91 % of control (dose: 50.0 mg/kg/injection, schedule: Q04DX003 (ip), vehicle: saline with Tween-80) and 87 % of control under setting [10].

In the case of `COc1ccc(C(C#N)Nc2ccccc2)cc1` (stereo unspecified), the T/C is 105 % of control under setting [4]; 109 % of control under setting [10]; 110 % of control under setting [5]; 100 % of control under setting [11]; 95 % of control under setting [6]; 109 % of control under setting [12].

For `Cc1cc(Br)c2ccccc2c1N(CC(=O)O)S(=O)(=O)c1ccccc1`, the T/C was 100 % of control (dose: 100.0 mg/kg/injection, schedule: Q01DX001 (ip), vehicle: saline with Tween-80); 109 % of control (dose: 200.0 mg/kg/injection, schedule: Q01DX001 (ip), vehicle: saline with Tween-80); 109 % of control (dose: 400.0 mg/kg/injection, schedule: Q01DX001 (ip), vehicle: saline with Tween-80).

As for `CC(C)(C)/C=N/Nc1ccc([N+](=O)[O-])cc1[N+](=O)[O-]`, the T/C under setting [15] is 104 % of control; the T/C (dose: 100.0 mg/kg/injection, schedule: Q01DX009 (ip), vehicle: Klucel (hydroxypropylcellulose) (HPC)) was 100 % of control; the T/C under setting [7] was 104 % of control; the T/C (dose: 200.0 mg/kg/injection, schedule: Q01DX009 (ip), vehicle: Klucel (hydroxypropylcellulose) (HPC)) is 100 % of control; the T/C under setting [8] was 109 % of control; the T/C (dose: 400.0 mg/kg/injection, schedule: Q01DX009 (ip), vehicle: Klucel (hydroxypropylcellulose) (HPC)) is 95 % of control.

`S=C(S)Nc1cccc2ccccc12`: the T/C was 100 % of control under setting [4]; 90 % of control under setting [10]; 100 % of control under setting [5]; 109 % of control under setting [11]; 105 % of control under setting [6]; 95 % of control under setting [12].

`CCC1OCC(C(Cl)CCl)O1` (stereo unspecified): the T/C is 118 % of control under setting [4], 113 % of control under setting [10], 118 % of control under setting [11] and 104 % of control under setting [12].

For the molecule `CC(=O)c1ccccc1NC=O`, the T/C is 100 % of control under setting [10], 104 % of control under setting [11] and 108 % of control under setting [12].

For the molecule `O=C(O)c1ccc([N+](=O)[O-])s1`, the T/C was 90 % of control (dose: 50.0 mg/kg/injection, schedule: Q01DX009 (ip), vehicle: saline with Tween-80); 95 % of control under setting [4]; 110 % of control under setting [10]; 100 % of control under setting [11].

Take `CCCCOCCOc1ccc(C(=O)OC)cc1`: the T/C is, setting by setting: (dose: 50.0 mg/kg/injection, schedule: Q04DX003 (ip), vehicle: saline sonified) 100 % of control; (dose: 100.0 mg/kg/injection, schedule: Q04DX003 (ip), vehicle: saline sonified) 100 % of control; (dose: 200.0 mg/kg/injection, schedule: Q04DX003 (ip), vehicle: saline sonified) 105 % of control.

With `CC1=C/C(=N\N=C2/C=C(C)CC(C)(C)C2)CC(C)(C)C1`, the T/C was 104 % of control under setting [7], 109 % of control under setting [8] and 100 % of control under setting [9].

Turning to `CC(=O)Nc1cc(C)ccc1O`, the T/C runs as follows: under setting [10], 100 % of control; under setting [11], 104 % of control; under setting [12], 90 % of control.
